Reference: patent US9073863B2, “Cyanoquinoline compounds having activity in correcting mutant-CFTR processing and increasing ion transport and uses thereof” (The Regents of the University of California, priority 2011, dated 2015)

How the values were obtained:
[1] = molecular target: T1, ΔF508-CFTR (Homo sapiens, UniProt P13569, DEL508-508); test: Corrector assay, YFP fluorescence plate reader iodide influx in ΔF508-CFTR expressing FRT cells; format: cell-based; details: for Corrector Vmax / EC50 / Corrector EC50: 18-24 h with compound at 37° C., forskolin 20 μM + genistein 50 μM; for corrector and potentiator activities, in words: concentration-dependence in corrector and potentiator I− influx assays (FIG. 2, FIG. 7)
T1 construct: expressed in transfected cells; host or cells: Fischer rat thyroid (FRT) epithelial cells, stably transfected
Protocol: (§1) Screening procedures. Screening of compounds for activity was carried out using a Beckman Coulter platform equipped with FLUOstar fluorescence plate readers (Optima; BMG Labtech) with dual syringe pumps and 500±10 nm excitation and 535±15 nm emission filters (Chroma Corp.). For the corrector assay, FRT cells were grown at 37° C./5% CO2 for 18-24 h and then incubated for 18-24 h with 100 μL of medium containing test compounds (25 μM final concentration). At the time of the assay, cells were washed with PBS and then incubated for 10 min with PBS containing forskolin (20 μM) and genistein (50 μM). For the potentiator assay, FRT cells were grown at 37° C./5% CO2 for 18-24 h and then for 18-24 h at 27° C. At the time of the assay, cells were washed with PBS and then incubated for 10 min with PBS (50 μL) containing forskolin (20 μM) and test compound (0-25 μM final concentration). For both the corrector and potentiator assays, each well was assayed individually for I^− influx by recording fluorescence continuously (200 ms per point) for 2 s (baseline) and then for 12 s after rapid addition of 165 μL PBS in which 137 mM Cl^− was replaced by I^−. Initial I^− influx rate was computed by fitting the final 11.5 seconds of the data to an exponential for extrapolation of initial slope, which was normalized for background-subtracted initial fluorescence. All compound plates contained negative controls and positive controls (10 μM Corr-4a for corrector assay; 50 μM genistein for potentiator assay).
(§2) Screening of about 110,000 small molecules was done to identify new ΔF508-CFTR corrector scaffolds having high correction efficiency and/or having independent potentiator activity. […] FRT cells co-expressing human ΔF508-CFTR and a halide-sensing YFP were incubated with test compounds at 37° C. (corrector assay) or 27° C. (potentiator assay). ΔF508-CFTR function was assayed in a plate reader from YFP fluorescence quenching in response to iodide addition in the presence of forskolin (20 μM) plus genistein (50 μM) for corrector assay, or forskolin (20 μM) alone for potentiator assay. As shown in FIG. 1A (left), primary screening for corrector activity was done using a cell-based fluorescence assay of iodide influx in which FRT cells expressing ΔF508-CFTR and an iodide-sensitive YFP were incubated with test compounds at 10 μM for 18-24 h prior to assay. Iodide influx was measured by addition of extracellular iodide in the presence of a potentiator (50 μM genistein) and cAMP agonist (20 μM forskolin). Compound efficacy and potency (from concentration-dependence studies) in the corrector assay were compared to reference bithiazole Corr-4a (10 μM) and to low-temperature rescued cells. Active compounds were counter-screened for potentiator activity (FIG. 1A, right) in which iodide influx was measured in the ΔF508-CFTR expressing FRT cells after low-temperature rescue and in the presence of 20 μM forskolin.
(§3) Screening procedures. Plate reader activity assay was carried out using a Beckman Coulter platform containing a robotic arm, CO2 incubator containing microplate carousel, plate-washer, liquid handling work station, bar code reader, de-lidding station, plate sealer, and FLUOstar fluorescence plate readers (Optima; BMG LABTECH Gmbh), equipped with dual syringe pumps and 500±10 nm excitation and 535±15 nm emission filters (Chroma Corp.). For the corrector assay, ΔF508-CFTR-expressing FRT cells were grown at 37° C. (90% humidity; 5% CO2) for 18-24 h and then incubated for 18-24 h with 100 μL of medium containing test compounds (0-25 μM final concentration). At the time of the assay, cells were washed with PBS and then incubated for 10 min with PBS containing forskolin (20 μM) and genistein (50 μM). For the potentiator assay, FRT cells were grown at 37° C. (90% humidity; 5% CO2) for 18-24 h and then for 18-24 h at 27° C. […]

[2] = molecular target: T1, ΔF508-CFTR; test: Potentiator assay, YFP fluorescence plate reader iodide influx in low-temperature rescued ΔF508-CFTR expressing FRT cells; format: cell-based; details: for EC50 / Potentiator Vmax / Potentiator EC50: forskolin 20 μM + test compound; for potentiator activity, in words: piperazine ring in place of diamino ethylene tether
Protocol: as §1, §2, §3

[3] = Table IX, additional experiments
[4] = Table IX, additional experiments, 18-24 h at 27° C.
[5] = Table VIII, FRT cells, I− influx
[6] = Table VIII, FRT cells 18-24 h at 27° C., I− influx

T1 sequence (P13569 with tags, fused parts or gaps DEL508-508): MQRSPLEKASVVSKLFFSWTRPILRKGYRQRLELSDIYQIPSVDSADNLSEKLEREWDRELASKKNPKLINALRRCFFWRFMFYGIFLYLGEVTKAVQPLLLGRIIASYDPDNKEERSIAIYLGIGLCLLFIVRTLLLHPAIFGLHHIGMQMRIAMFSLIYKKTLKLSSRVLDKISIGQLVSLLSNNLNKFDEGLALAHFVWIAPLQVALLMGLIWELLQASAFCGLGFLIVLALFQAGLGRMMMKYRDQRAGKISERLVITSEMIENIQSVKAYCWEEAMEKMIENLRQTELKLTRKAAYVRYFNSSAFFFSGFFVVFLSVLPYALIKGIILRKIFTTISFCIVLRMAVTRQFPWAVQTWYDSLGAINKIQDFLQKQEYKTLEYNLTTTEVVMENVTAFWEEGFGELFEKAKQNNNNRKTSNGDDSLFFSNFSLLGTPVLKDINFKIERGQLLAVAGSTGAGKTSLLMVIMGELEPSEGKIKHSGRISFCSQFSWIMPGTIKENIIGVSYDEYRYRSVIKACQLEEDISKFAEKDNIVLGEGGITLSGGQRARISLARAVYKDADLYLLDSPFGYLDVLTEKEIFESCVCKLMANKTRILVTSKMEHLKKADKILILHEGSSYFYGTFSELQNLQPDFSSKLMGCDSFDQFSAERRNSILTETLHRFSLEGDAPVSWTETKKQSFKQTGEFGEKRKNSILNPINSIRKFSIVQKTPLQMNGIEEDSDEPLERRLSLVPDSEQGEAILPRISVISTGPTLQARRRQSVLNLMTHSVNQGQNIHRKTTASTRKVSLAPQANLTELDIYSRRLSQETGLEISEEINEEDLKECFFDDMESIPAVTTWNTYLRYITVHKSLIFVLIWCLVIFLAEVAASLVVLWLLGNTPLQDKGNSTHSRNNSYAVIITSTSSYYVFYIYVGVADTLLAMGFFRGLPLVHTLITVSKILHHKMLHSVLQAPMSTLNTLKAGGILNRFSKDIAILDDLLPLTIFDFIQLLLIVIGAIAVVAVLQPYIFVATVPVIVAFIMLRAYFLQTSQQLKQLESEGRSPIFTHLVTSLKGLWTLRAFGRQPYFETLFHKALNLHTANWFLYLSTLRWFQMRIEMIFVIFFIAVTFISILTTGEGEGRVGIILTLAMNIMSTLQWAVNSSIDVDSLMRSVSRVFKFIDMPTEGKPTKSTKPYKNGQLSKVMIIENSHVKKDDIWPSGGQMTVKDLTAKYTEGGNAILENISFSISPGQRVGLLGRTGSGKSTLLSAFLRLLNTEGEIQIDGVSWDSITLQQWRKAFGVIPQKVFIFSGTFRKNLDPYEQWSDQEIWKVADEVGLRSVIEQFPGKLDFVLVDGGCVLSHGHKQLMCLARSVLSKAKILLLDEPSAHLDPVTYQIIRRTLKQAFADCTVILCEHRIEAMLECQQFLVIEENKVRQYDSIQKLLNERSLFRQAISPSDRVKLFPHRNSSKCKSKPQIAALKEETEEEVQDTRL

Structure (SMILES) | Corrector Vmax [1, 3] | Potentiator Vmax [2, 4] | Corrector Vmax [1, 5] | Potentiator Vmax [2, 6] [µM/s] | also measured
COc1ccccc1C(=O)NCCCNc1nc2cc(C)cc(C)c2cc1C#N | inactive | 254 µM/s |  |  | EC50 [2, 4]: 27.6 ± 2 µM
COc1ccccc1C(=O)N1CCN(c2nc3cc(C)cc(C)c3cc2C#N)CC1 [drawing 152] |  |  | inactive | 129 | 
COc1ccc(C(=O)NCCNc2nc3ccc(C)cc3cc2C#N)cc1OC [drawing 138] |  |  | 281 µM/s | 297 | EC50 [1, 5]: 3.9 µM; EC50 [2, 6]: 15 µM
COc1ccc2nc(N3CCN(C(=O)c4ccccc4F)CC3)c(C#N)cc2c1 |  |  | 140 µM/s | 195 | EC50 [1, 5]: 4.2 µM; EC50 [2, 6]: 11 µM
COc1ccccc1C(=O)N1CCN(c2nc3cc(C)cc(C)c3cc2C#N)CC1 [drawing 170] | inactive | 129 µM/s |  |  | Corrector EC50 [1, 3]: inactive; EC50 [2, 4]: 1 ± 0.3 µM
Cc1cc(C)c2cc(C#N)c(NCCNC(=O)c3cccnc3)nc2c1 [drawing 150] |  |  | 223 µM/s | 152 | EC50 [1, 5]: 15.2 µM; EC50 [2, 6]: 11 µM
Cc1cc(C)c2cc(C#N)c(NCCCNC(=O)c3cccnc3)nc2c1 [drawing 180] | 140 µM/s | 115 µM/s |  |  | EC50 [1, 3]: 3 ± 0.5 µM
COc1ccc(C(=O)N2CCN(c3nc4cc(C)cc(C)c4cc3C#N)CC2)cc1 [Compound AW3] |  |  |  |  | corrector and potentiator activities, in words [1]: potentiator-only activity; potentiator activity, in words [2]: significant potentiator activity
Cc1cc(C)c2cc(C#N)c(NCCCNC(=O)c3ccncc3)nc2c1 [drawing 181] | 61 µM/s | 53 µM/s |  |  | EC50 [1, 3]: 8.2 ± 0.4 µM; EC50 [2, 4]: 13.2 ± 0.4 µM
COc1ccc(C(=O)NCCCNc2nc3cc(C)cc(C)c3cc2C#N)cc1 [drawing 160] |  |  | 112 µM/s | 231 | EC50 [2, 6]: 5 µM
Cc1cc(C)c2cc(C#N)c(NCCNC(=O)c3cccnc3)nc2c1 [drawing 168] | 151 µM/s | 242 µM/s |  |  | EC50 [1, 3]: 2.7 ± 0.6 µM; EC50 [2, 4]: 13.2 ± 0.6 µM
COc1ccc(C(=O)N2CCN(c3nc4cc(C)cc(C)c4cc3C#N)CC2)cc1 [drawing 172] | inactive | 281 µM/s |  |  | Corrector EC50 [1, 3]: inactive
COc1ccccc1C(=O)N1CCN(c2nc3cc(C)cc(C)c3cc2C#N)CC1 [Compound AW1] |  |  |  |  | corrector and potentiator activities, in words [1]: potentiator-only activity; potentiator activity, in words [2]: significant potentiator activity
Cc1cc(C)c2cc(C#N)c(NCCNC(=O)c3cnccn3)nc2c1 | 174 µM/s | inactive |  |  | EC50 [1, 3]: 6.7 ± 1 µM
Cc1cc(C)c2cc(C#N)c(NCCCNC(=O)c3ccccn3)nc2c1 [drawing 179] | inactive | 233 µM/s |  |  | 
COc1ccccc1C(=O)NCCNc1nc2cc(C)cc(C)c2cc1C#N [drawing 165] | 114 µM/s | 154 µM/s |  |  | EC50 [1, 3]: 11 ± 0.9 µM
COc1cccc(C(=O)N2CCN(c3nc4cc(C)cc(C)c4cc3C#N)CC2)c1 [drawing 171] | inactive | 200 µM/s |  |  | Corrector EC50 [1, 3]: inactive
COc1ccc(S(=O)(=O)N2CCN(c3nc4ccc(C)cc4cc3C#N)CC2)cc1 [drawing 140] |  |  | 102 µM/s | 72 | EC50 [1, 5]: 5 µM; EC50 [2, 6]: 3.8 µM
COc1cccc(C(=O)NCCNc2nc3cc(C)cc(C)c3cc2C#N)c1 [drawing 146] |  |  | 300 µM/s | 306 | 

Structure (SMILES) | Corrector Vmax [1, 3] | Potentiator Vmax [2, 4] | Corrector Vmax [1, 5] | Potentiator Vmax [2, 6] [µM/s] | also measured
CCOc1ccccc1NC(=S)NCCNc1nc2c(C)cccc2cc1C#N [drawing 144] |  |  | inactive | 275 | Corrector EC50 [1, 5]: inactive; EC50 [2, 6]: 6 µM
COc1cccc(C(=O)NCCCNc2nc3cc(C)cc(C)c3cc2C#N)c1 [drawing 177] | 134 µM/s | 147 µM/s |  |  | 
COc1cccc(C(=O)NCCNc2nc3cc(C)cc(C)c3cc2C#N)c1 [drawing 164] | 300 µM/s | 216 µM/s |  |  | EC50 [1, 3]: 2.2 ± 0.3 µM; EC50 [2, 4]: 5.9 ± 0.5 µM
COc1ccc(C(=O)NCCNc2nc3cc(C)cc(C)c3cc2C#N)nc1 [drawing 186] | 88 µM/s | 70 µM/s |  |  | EC50 [1, 3]: 2.7 ± 0.5 µM; EC50 [2, 4]: 3.4 ± 0.5 µM
COc1ccc(C(=O)NCCNc2nc3cc(C)cc(C)c3cc2C#N)c(OC)c1 | 108 µM/s | 426 µM/s |  |  | EC50 [1, 3]: 4.2 ± 0.4 µM; EC50 [2, 4]: 55 ± 3.5 µM
Cc1cc(C)c2cc(C#N)c(NCCNC(=O)c3ccncc3)nc2c1 [drawing 151] |  |  | 172 µM/s | 220 | EC50 [1, 5]: 9.1 µM
Cc1cc(C)c2cc(C#N)c(N3CCN(C(=O)c4ccncc4)CC3)nc2c1 | inactive | inactive |  |  | Corrector EC50 [1, 3]: inactive; Potentiator EC50 [2, 4]: inactive
COc1ccc2nc(N3CCN(C(=O)c4ccccc4Cl)CC3)c(C#N)cc2c1 |  |  | inactive | 261 | Corrector EC50 [1, 5]: inactive; EC50 [2, 6]: 13 µM
COc1cccc(OC)c1C(=O)NCCNc1nc2cc(C)cc(C)c2cc1C#N | 111 µM/s | 119 µM/s |  |  | EC50 [1, 3]: 3.7 ± 0.6 µM; EC50 [2, 4]: 11.5 ± 1 µM
Cc1cc(C)c2cc(C#N)c(NCCNC(=O)c3ccccc3)nc2c1 | inactive | 210 µM/s |  |  | EC50 [2, 4]: 10 ± 2 µM
COc1cccc(C(=O)NCCCNc2nc3cc(C)cc(C)c3cc2C#N)c1 [drawing 159] |  |  | 134 µM/s | 147 | EC50 [2, 6]: 4.6 µM
Cc1cc(C)c2cc(C#N)c(NCCNC(=O)c3ccncc3)nc2c1 [drawing 169] | 176 µM/s | 220 µM/s |  |  | EC50 [1, 3]: 7.3 ± 0.8 µM; EC50 [2, 4]: 10 ± 3.1 µM
Cc1cc(C)c2cc(C#N)c(N3CCN(C(=O)c4cccnc4)CC3)nc2c1 [drawing 174] | inactive | inactive |  |  | Corrector EC50 [1, 3]: inactive; Potentiator EC50 [2, 4]: inactive
Cc1cc(C)c2cc(C#N)c(NCCCNC(=O)c3cccnc3)nc2c1 [drawing 162] |  |  | inactive | 115 | Corrector EC50 [1, 5]: inactive; EC50 [2, 6]: 16 µM
COc1ccc2nc(N3CCN(C(=O)c4ccccc4Br)CC3)c(C#N)cc2c1 |  |  | inactive | 235 | Corrector EC50 [1, 5]: inactive; EC50 [2, 6]: 5 µM
Cc1cc(C)c2cc(C#N)c(NCCNC(=O)c3ccccn3)nc2c1 [drawing 149] |  |  | inactive | 80 | 
COc1ccc(C(=O)NCCNc2nc3cc(C)cc(C)c3cc2C#N)cc1OC [drawing 185] | 380 µM/s | 216 µM/s |  |  | EC50 [1, 3]: 1.5 ± 0.4 µM; EC50 [2, 4]: 48 ± 5 µM
COc1ccccc1C(=O)NCCNc1nc2cc(C)cc(C)c2cc1C#N [drawing 147] |  |  | 114 µM/s | 154 | EC50 [2, 6]: 2.3 µM
